Measurements: the supplement of paper PMC10307832

Assays:
Assay in all cases: relative viability (nuclei count vs DMSO), 5 days (fraction); higher = more cells survive
[1] = compound: CC1=C(C(=O)N2C=CSC2=N1)CCN3CCC(=C(C4=CC=CC=C4)C5=CC=C(C=C5)F)CC3 + Cc1nc(Nc2ncc(C(=O)Nc3c(C)cccc3Cl)s2)cc(N2CCN(CCO)CC2)n1 [Dasatinib] (partner 0.075 µM)
Outline: (§1)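 For relative viability, nuclei counts in treated wells were divided by those in vehicle wells. Lung cancer cell lines had been pin-tool dosed in 1536-well plates the day after seeding and cultured for 5 days, then fixed and stained in one step (final 0.05% Triton X-100, 1% formaldehyde, 1 ug/ml Hoechst) and imaged at 4×. Doses were one drug alone or a fixed anchor-drug dose plus five library-drug doses (not always all listed) in √10 steps, and values are duplicate-plate medians.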

[2] = compound: CC1=C(C(=O)N2C=CSC2=N1)CCN3CCC(=C(C4=CC=CC=C4)C5=CC=C(C=C5)F)CC3 + CC(=O)c1c(C)c2cnc(Nc3ccc(N4CCNCC4)cn3)nc2n(C2CCCC2)c1=O [Palbociclib] (partner 0.5 µM)
Outline: as §1

[3] = compound: CC1=C(C(=O)N2C=CSC2=N1)CCN3CCC(=C(C4=CC=CC=C4)C5=CC=C(C=C5)F)CC3 + CC(C)C[C@H](NC(=O)[C@H](Cc1ccccc1)NC(=O)c1cnccn1)B(O)O [Bortezomib] (partner 0.002 µM)
Outline: as §1

[4] = compound: CC1=C(C(=O)N2C=CSC2=N1)CCN3CCC(=C(C4=CC=CC=C4)C5=CC=C(C=C5)F)CC3 + Cc1nc(NC(=O)N2CCC[C@H]2C(N)=O)sc1-c1ccnc(C(C)(C)C(F)(F)F)c1 [Alpelisib] (partner 2 µM)
Outline: as §1

Cell Line | relative viability ([1]; first compound 0.08 µM) | relative viability ([1]; first compound 0.253 µM) | relative viability ([1]; first compound 0.8 µM) | relative viability ([1]; first compound 2.53 µM) | relative viability ([1]; first compound 8 µM) | relative viability ([2]; first compound 0.08 µM) | relative viability ([2]; first compound 0.253 µM) | relative viability ([2]; first compound 0.8 µM) | relative viability ([2]; first compound 2.53 µM) | relative viability ([2]; first compound 8 µM) | relative viability ([3]; first compound 0.08 µM) | relative viability ([3]; first compound 0.253 µM) | relative viability ([3]; first compound 0.8 µM) | relative viability ([3]; first compound 2.53 µM) | relative viability ([3]; first compound 8 µM) | relative viability ([4]; first compound 0.08 µM) | relative viability ([4]; first compound 0.253 µM) | relative viability ([4]; first compound 0.8 µM) | relative viability ([4]; first compound 2.53 µM) | relative viability ([4]; first compound 8 µM)
NCI-H1975 | 0.355 | 0.395 | 0.345 | 0.386 | 0.304 | 0.601 | 0.493 | 0.598 | 0.795 | 0.348 | 0.35 | 0.329 | 0.368 | 0.434 | 0.362 | 0.674 | 0.616 | 0.656 | 0.667 | 0.451
COR-L 105 | 0.416 | 0.32 | 0.241 | 0.372 | 0.294 | 0.439 | 0.419 | 0.383 | 0.406 | 0.383 | 0.83 | 0.691 | 0.75 | 0.919 | 0.568 | 0.984 | 1.09 | 1.16 | 1.1 | 0.963
CAL-12T | 0.319 | 0.268 | 0.373 | 0.527 | 0.279 | 0.371 | 0.389 | 0.434 | 0.462 | 0.319 | – | 0.745 | 0.843 | 1.03 | 0.733 | 0.811 | 1.34 | 1.45 | 1.49 | 0.589
NCI-H2405 | 0.23 | 0.223 | 0.208 | 0.186 | 0.184 | 0.609 | – | 0.547 | 0.576 | 0.476 | 0.872 | 0.969 | 0.999 | 0.732 | 0.814 | 0.74 | 0.798 | 0.914 | 0.792 | 0.731
PC-14 | 0.228 | 0.284 | 0.21 | 0.237 | 0.282 | 0.358 | 0.574 | 0.455 | 0.622 | 0.328 | 0.9 | 0.759 | 1.01 | 1.09 | 0.592 | 0.738 | 1.04 | 0.955 | 0.979 | 0.624
LOU-NH91 | 0.527 | 0.586 | 0.557 | 0.594 | 0.435 | 0.501 | 0.59 | 0.543 | 0.547 | 0.536 | 0.508 | 0.507 | 0.483 | 0.481 | 0.55 | 0.687 | 0.709 | 0.807 | 0.749 | 0.677
EMC-BAC-2 | 0.287 | 0.329 | 0.277 | 0.328 | 0.298 | 0.497 | 0.494 | 0.493 | 0.46 | 0.506 | 0.902 | 1.13 | 1.07 | 1.07 | 0.705 | 0.639 | 0.673 | 0.806 | 0.824 | 0.588
NCI-H2009 | 0.369 | 0.304 | 0.28 | 0.332 | 0.285 | 0.231 | 0.175 | 0.186 | 0.204 | 0.21 | 1.25 | 1.11 | 0.986 | 1.03 | 0.88 | 1.26 | 1.16 | 1.2 | 1.19 | 1.08
NCI-H460 | 0.508 | 0.444 | 0.486 | 0.574 | 0.395 | 0.187 | 0.151 | 0.203 | 0.0978 | 0.13 | 0.718 | 0.799 | 1.3 | – | 0.184 | 0.54 | 0.588 | 0.366 | 0.621 | 0.221
NCI-H3122 | 1.02 | 0.769 | 0.781 | 1.06 | 0.524 | 0.178 | 0.213 | 0.192 | 0.164 | 0.157 | 1.04 | 1.04 | 0.993 | 1.14 | 1.16 | 0.794 | 0.701 | 0.781 | 0.915 | 0.752
NCI-H1666 | 0.794 | 0.689 | 0.827 | 0.861 | 0.63 | 0.663 | 0.616 | 0.627 | 0.739 | 1.01 | 0.83 | 0.762 | 0.924 | 0.815 | 0.695 | 0.969 | 1.02 | 0.902 | 1.06 | 0.794
PC-3 [JPC-3] | 0.901 | 0.702 | 1.01 | 1.14 | 0.844 | 0.58 | – | 0.576 | 0.596 | 0.579 | 0.811 | 0.895 | 0.969 | 1.01 | 0.642 | 0.959 | 1.1 | 1.07 | 1.08 | 0.899
UMC-11 | 0.526 | 0.422 | 0.525 | 0.824 | 0.357 | 0.309 | 0.321 | 0.272 | 0.321 | 0.328 | 0.793 | 0.609 | 0.731 | 0.861 | 0.595 | 1.1 | 0.765 | 0.977 | 1.29 | 0.732
SW 1573 | – | 0.586 | 0.537 | 0.512 | 0.225 | 0.346 | 0.359 | 0.407 | 0.382 | 0.286 | 1.26 | 1.16 | 1.05 | 1.06 | 0.649 | 0.829 | 0.829 | 0.739 | 0.657 | 0.469
SK-LU-1 | 0.196 | 0.172 | 0.19 | 0.18 | 0.178 | 0.378 | 0.375 | 0.406 | 0.416 | 0.36 | 1.08 | 0.965 | 1.05 | 1.19 | 1.01 | 1.24 | 0.925 | 1.13 | 1.33 | 0.826
201T | 0.614 | 0.628 | 0.541 | 0.713 | 0.569 | 0.355 | 0.35 | 0.366 | 0.35 | 0.348 | 1.16 | 1.12 | 1.08 | 1.16 | 1.13 | 1.02 | 1.04 | 1.08 | 1.07 | 0.852
EPLC-272H | 0.364 | 0.331 | 0.378 | 0.305 | 0.22 | 0.321 | 0.316 | 0.33 | 0.329 | 0.337 | – | 0.888 | 0.888 | 1.07 | 0.921 | – | 0.878 | 1.05 | 0.852 | 0.737
NCI-H441 | 0.526 | 0.678 | 0.679 | 0.541 | 0.507 | 0.219 | 0.196 | 0.2 | 0.208 | 0.234 | – | 0.447 | 0.464 | 0.468 | 0.215 | – | 0.638 | 0.79 | 1.01 | 0.588
NCI-H1651 | 0.406 | 0.535 | 0.423 | 0.434 | 0.341 | 0.499 | 0.534 | 0.508 | 0.517 | 0.481 | 0.858 | 0.874 | 0.908 | 1.01 | 0.809 | 1.19 | 0.972 | 1.03 | 0.88 | 0.785
HCC-366 | 0.697 | 0.631 | 0.711 | 0.545 | 0.247 | 0.392 | 0.394 | 0.458 | 0.337 | 0.277 | – | 1.14 | 1.18 | 1.04 | 0.308 | – | 0.428 | 0.471 | 0.605 | 0.243
NCI-H647 | 0.12 | 0.15 | 0.167 | 0.18 | 0.0953 | 0.461 | 0.425 | 0.298 | 0.453 | 0.153 | 0.858 | 0.744 | 0.888 | 1.5 | 0.453 | 1.71 | 1.24 | 0.993 | 1.06 | 0.793
NCI-H2347 | 0.263 | 0.31 | 0.311 | 0.48 | 0.283 | 0.358 | 0.428 | 0.434 | 0.442 | 0.461 | – | 1.18 | 0.957 | 1.04 | 0.895 | 0.942 | 0.855 | 1.18 | 1.02 | 0.791
H3255 | 0.349 | 0.357 | 0.307 | 0.339 | 0.375 | 0.273 | 0.317 | 0.313 | 0.311 | 0.303 | 0.909 | 0.831 | 0.704 | 0.873 | 0.732 | 0.52 | 0.623 | 0.727 | 0.712 | 0.587
NCI-H1755 | 0.373 | 0.422 | 0.462 | 0.401 | 0.269 | 0.433 | 0.429 | 0.395 | 0.426 | 0.432 | 0.948 | 0.9 | 0.962 | 1.11 | 0.44 | 0.807 | 0.856 | 0.994 | 1.07 | 0.69
RERF-LC-KJ | 0.706 | 0.892 | 0.879 | 0.688 | 0.492 | 1.18 | 1.04 | 0.97 | 0.991 | 0.637 | 1.02 | 1.02 | 1.16 | 1.18 | 1 | 0.743 | 0.844 | 0.8 | 0.758 | 0.633
HCC-15 | 0.638 | 0.561 | 0.643 | 0.678 | 0.586 | 0.738 | 0.744 | 0.679 | 0.729 | 0.556 | 1.05 | 1.04 | 1.09 | 0.964 | 0.786 | 0.875 | 0.958 | 0.972 | 1.04 | 0.69
NCI-H650 | 0.474 | 0.504 | 0.388 | 0.546 | 0.46 | 0.322 | 0.348 | 0.322 | 0.32 | 0.334 | – | 0.696 | 0.877 | 0.817 | 0.599 | – | 1.12 | 1.29 | 1.09 | 0.794
